# Measured values published in PubChem BioAssay (NCI).
#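 A five-concentration, 48-hour dose response in 96-well plates underlies each endpoint, interpolated linearly between surrounding concentrations. TGI is the concentration that stops growth completely.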
# Tests used:
# Test in all cases: growth of human tumour cells (NCI), 48 h
# RXF 393 renal = test system: RXF 393 renal
# SK-MEL-2 melanoma = test system: SK-MEL-2 melanoma
# SK-MEL-28 melanoma = test system: SK-MEL-28 melanoma
# K-562 leukemia = test system: K-562 leukemia
# HL-60(TB) leukemia = test system: HL-60(TB) leukemia
# A498 renal = test system: A498 renal
# HCC-2998 colon = test system: HCC-2998 colon
# BT-549 breast = test system: BT-549 breast
# OVCAR-5 ovarian = test system: OVCAR-5 ovarian
# A549 NSCLC = test system: A549 NSCLC
# MALME-3M melanoma = test system: MALME-3M melanoma
# HS 578T breast = test system: HS 578T breast
# SW-620 colon = test system: SW-620 colon
# KM12 colon = test system: KM12 colon
# SK-OV-3 ovarian = test system: SK-OV-3 ovarian
# SNB-19 CNS = test system: SNB-19 CNS
# SN12C renal = test system: SN12C renal
# MDA-MB-231 breast = test system: MDA-MB-231 breast
# TK-10 renal = test system: TK-10 renal
# U251 CNS = test system: U251 CNS
# HCT-116 colon = test system: HCT-116 colon
# UACC-257 melanoma = test system: UACC-257 melanoma
# MDA-N = test system: MDA-N
# RPMI-8226 leukemia = test system: RPMI-8226 leukemia
# NCI-H226 lung = test system: NCI-H226 lung
# UO-31 renal = test system: UO-31 renal
# NCI-H460 lung = test system: NCI-H460 lung
# HCT-15 colon = test system: HCT-15 colon
# SF-268 CNS = test system: SF-268 CNS
# MCF7 breast = test system: MCF7 breast
# HOP-92 NSCLC = test system: HOP-92 NSCLC
# OVCAR-3 ovarian = test system: OVCAR-3 ovarian
# NCI-H23 lung = test system: NCI-H23 lung
# SK-MEL-5 melanoma = test system: SK-MEL-5 melanoma
# SR leukemia = test system: SR leukemia
# SNB-75 CNS = test system: SNB-75 CNS
# T-47D breast = test system: T-47D breast
# M14 melanoma = test system: M14 melanoma
# NCI/ADR-RES ovarian = test system: NCI/ADR-RES ovarian
# SF-539 CNS = test system: SF-539 CNS
# ACHN renal = test system: ACHN renal
# OVCAR-4 ovarian = test system: OVCAR-4 ovarian
# 786-0 renal = test system: 786-0 renal
# COLO 205 colon = test system: COLO 205 colon
# MDA-MB-435 = test system: MDA-MB-435
# DU-145 prostate = test system: DU-145 prostate
# LOX IMVI melanoma = test system: LOX IMVI melanoma
# HT29 colon = test system: HT29 colon
# HOP-62 NSCLC = test system: HOP-62 NSCLC
# UACC-62 melanoma = test system: UACC-62 melanoma
# PC-3 prostate = test system: PC-3 prostate
# CAKI-1 renal = test system: CAKI-1 renal
# NCI-H522 lung = test system: NCI-H522 lung
# SF-295 CNS = test system: SF-295 CNS
# CCRF-CEM leukemia = test system: CCRF-CEM leukemia
# EKVX NSCLC = test system: EKVX NSCLC
structure (smiles),measurement,setting,value
COc1ccc(-c2cn3c(nc4ccccc43)c(/C=C/c3cccs3)n2)cc1,TGI,RXF 393 renal,> 100 µM
same,TGI,SK-MEL-2 melanoma,45.6 µM
same,TGI,SK-MEL-28 melanoma,> 100 µM
same,TGI,K-562 leukemia,> 100 µM
same,TGI,HL-60(TB) leukemia,89.7 µM
same,TGI,A498 renal,> 100 µM
same,TGI,HCC-2998 colon,> 100 µM
same,TGI,BT-549 breast,> 100 µM
same,TGI,OVCAR-5 ovarian,> 100 µM
same,TGI,A549 NSCLC,> 100 µM
same,TGI,MALME-3M melanoma,> 100 µM
same,TGI,HS 578T breast,> 100 µM
same,TGI,SW-620 colon,> 100 µM
same,TGI,KM12 colon,> 100 µM
same,TGI,SK-OV-3 ovarian,> 100 µM
same,TGI,SNB-19 CNS,> 100 µM
same,TGI,SN12C renal,> 100 µM
same,TGI,MDA-MB-231 breast,> 100 µM
same,TGI,TK-10 renal,> 100 µM
same,TGI,U251 CNS,> 100 µM
same,TGI,HCT-116 colon,> 100 µM
same,TGI,UACC-257 melanoma,> 100 µM
same,TGI,MDA-N,25.1 µM
same,TGI,RPMI-8226 leukemia,44.1 µM
same,TGI,NCI-H226 lung,> 100 µM
same,TGI,UO-31 renal,> 100 µM
same,TGI,NCI-H460 lung,> 100 µM
same,TGI,HCT-15 colon,> 100 µM
same,TGI,SF-268 CNS,> 100 µM
same,TGI,MCF7 breast,> 100 µM
same,TGI,HOP-92 NSCLC,> 100 µM
same,TGI,OVCAR-3 ovarian,> 100 µM
same,TGI,NCI-H23 lung,> 100 µM
same,TGI,SK-MEL-5 melanoma,> 100 µM
same,TGI,SR leukemia,15.4 µM
same,TGI,SNB-75 CNS,> 100 µM
same,TGI,T-47D breast,> 100 µM
same,TGI,M14 melanoma,> 100 µM
same,TGI,NCI/ADR-RES ovarian,51.7 µM
same,TGI,SF-539 CNS,> 100 µM
same,TGI,ACHN renal,> 100 µM
same,TGI,OVCAR-4 ovarian,> 100 µM
same,TGI,786-0 renal,> 100 µM
same,TGI,COLO 205 colon,> 100 µM
same,TGI,MDA-MB-435,36.5 µM
same,TGI,DU-145 prostate,> 100 µM
same,TGI,LOX IMVI melanoma,> 100 µM
same,TGI,HT29 colon,> 100 µM
same,TGI,HOP-62 NSCLC,> 100 µM
same,TGI,UACC-62 melanoma,> 100 µM
C[n+]1c2ccccc2n2c3ccccc3c(NCCCN3CCOCC3)c(C#N)c21,TGI,RXF 393 renal,3.91 µM
same,TGI,SK-MEL-2 melanoma,6.42 µM
same,TGI,SK-MEL-28 melanoma,> 20.4 µM
same,TGI,HL-60(TB) leukemia,> 100 µM
same,TGI,PC-3 prostate,> 30 µM
same,TGI,A498 renal,> 29 µM
same,TGI,HCC-2998 colon,3 µM
same,TGI,BT-549 breast,> 100 µM
same,TGI,OVCAR-5 ovarian,5.61 µM
same,TGI,A549 NSCLC,23.8 µM
same,TGI,MALME-3M melanoma,3.96 µM
same,TGI,HS 578T breast,6.47 µM
same,TGI,SW-620 colon,36.6 µM
same,TGI,KM12 colon,15.8 µM
same,TGI,SK-OV-3 ovarian,31.9 µM
same,TGI,CAKI-1 renal,8.38 µM
same,TGI,SNB-19 CNS,> 26.8 µM
same,TGI,SN12C renal,6.44 µM
same,TGI,MDA-MB-231 breast,4.94 µM
same,TGI,TK-10 renal,10.8 µM
same,TGI,U251 CNS,> 28.4 µM
same,TGI,HCT-116 colon,8.32 µM
same,TGI,UACC-257 melanoma,16.7 µM
same,TGI,MDA-N,2.9 µM
same,TGI,NCI-H226 lung,6.2 µM
same,TGI,UO-31 renal,15.3 µM
same,TGI,NCI-H460 lung,2.75 µM
same,TGI,HCT-15 colon,19.4 µM
same,TGI,NCI-H522 lung,2.25 µM
same,TGI,SF-268 CNS,5.39 µM
same,TGI,HOP-92 NSCLC,> 100 µM
same,TGI,SF-295 CNS,14.8 µM
same,TGI,OVCAR-3 ovarian,> 28.1 µM
same,TGI,NCI-H23 lung,8.08 µM
same,TGI,SK-MEL-5 melanoma,9.87 µM
same,TGI,SR leukemia,> 100 µM
same,TGI,SNB-75 CNS,5.4 µM
same,TGI,CCRF-CEM leukemia,> 100 µM
same,TGI,T-47D breast,> 26.3 µM
same,TGI,M14 melanoma,2.85 µM
same,TGI,NCI/ADR-RES ovarian,> 76.8 µM
same,TGI,SF-539 CNS,3.57 µM
same,TGI,ACHN renal,> 25.5 µM
same,TGI,OVCAR-4 ovarian,8.81 µM
same,TGI,786-0 renal,8.32 µM
same,TGI,COLO 205 colon,3.15 µM
same,TGI,MDA-MB-435,14.1 µM
same,TGI,EKVX NSCLC,15.1 µM
same,TGI,DU-145 prostate,18.2 µM
same,TGI,LOX IMVI melanoma,2.64 µM
same,TGI,HT29 colon,> 100 µM
same,TGI,HOP-62 NSCLC,> 33.5 µM
same,TGI,UACC-62 melanoma,13.8 µM
